EC50 data for 1 molecule are collected here from ChEMBL document CHEMBL1139547, “Anesthetic potency of two novel synthetic polyhydric alkanols longer than the n-alkanol cutoff: evidence for a bilayer-mediated mechanism of anesthesia?” (J Med Chem, 2005).

Molecules are shown by their SMILES.

A short description of the assay: Effective concentration for phenotypic endpoint in tadpoles. Also on record: species or system frog, Tadpole.

Molecule `CCCCCCO` [1-HEXANOL] showed an EC50 of approximately 700 µM.
